Results taken from patent publication US8569264B2, “Antibacterial 4,5-substituted aminoglycoside analogs having multiple substituents” (ISIS Pharmaceuticals, Inc., priority 2005, dated 2013).

Experiments:
Type in all cases: cell-based
S. aureus ATCC 29213 = assay: MIC, S. aureus ATCC 29213; conditions: Staphylococcus aureus, ATCC29213; Example 112
Protocol: (§1) The MIC assays are carried out in 150 μL volume in duplicate in 96-well clear flat-bottom plates. The bacterial suspension from an overnight culture growth in appropriate medium is added to a solution of test compound in 4% DMSO in water. Final bacterial inoculum is approximately 10^5-10^6 CFU/well. The percent growth of the bacteria in test wells relative to that observed for a well containing no compound is determined by measuring absorbance at 595 nm (A595) after 24 h. The MIC is determined as a range of single compound where the complete inhibition of growth is observed at the higher concentration and cells are viable at the lower concentrations. Both ampicillin and tetracycline are used as antibiotic-positive controls in each screening assay for S. pyogenes, E. coli imp-, E. coli, S. aureus, E. faecalis, K. pneumoniae and P. vulgaris. Ciprofloxacin is used as an antibiotic positive control in each screening assay for P. aeruginosa.
(§2) The following compound was prepared using methods illustrated in the previous examples. The compound was also examined in standard bacterial assays against E. Coli, S. Aureus, P. aurginosa, K. pneumoniae and A. baumannii to determine activities. Each of the bacterial cultures that are available from ATCC (www.atcc.org) is identified by its ATCC number.

K. pneumoniae ATCC 10031 = assay: MIC, K. pneumoniae ATCC 10031; conditions: Klebsiella pneumoniae, ATCC10031, Example 112
Protocol: (§3) The MIC assays are carried out in 150 μL volume in duplicate in 96-well clear flat-bottom plates. The bacterial suspension from an overnight culture growth in appropriate medium is added to a solution of test compound in 4% DMSO in water. Final bacterial inoculum is approximately 10^5-10^6 CFU/well. […] Both ampicillin and tetracycline are used as antibiotic-positive controls in each screening assay for S. pyogenes, E. coli imp-, E. coli, S. aureus, E. faecalis, K. pneumoniae and P. vulgaris. Ciprofloxacin is used as an antibiotic positive control in each screening assay for P. aeruginosa.
as §2, with “compounds were” for “compound was”, “pneumoniae, P. vulgaris,” for “pneumoniae”, “number. A. baumannii is gentamicin sensitive Acinetobacter baumannii #2 from Walter Reed.” for “number.”

A. baumannii ATCC 19606 = assay: MIC, A. baumannii ATCC 19606; conditions: Acinetobacter baumannii, ATCC19606; Example 112
Protocol: as §1, §2

P. aurginosa ATCC 27853 = assay: MIC, P. aurginosa ATCC 27853; conditions: Example 112
Protocol: as §1, §2

E. coli ATCC 25922 = assay: MIC, E. coli ATCC 25922; conditions: Escherichia coli, ATCC25922, Example 112
Protocol: as §3
as §2, with “compounds were” for “compound was”, “pneumoniae, P. vulgaris,” for “pneumoniae”, “number. A. baumannii is gentamicin sensitive Acinetobacter baumannii #2 from Walter Reed.” for “number.”

- MIC (S. aureus ATCC 29213): < 16 µM
- MIC (K. pneumoniae ATCC 10031): < 16 µM
- MIC (A. baumannii ATCC 19606): < 16 µM
- MIC (P. aurginosa ATCC 27853): < 16 µM
- MIC (E. coli ATCC 25922): < 16 µM
SMILES: NCC[C@H](O)C(=O)N[C@@H]1C[C@H](N)[C@@H](O[C@H]2O[C@H](CN)CC[C@H]2N)[C@H](O[C@@H]2O[C@H](CO)[C@@H](O[C@H]3O[C@@H](CN)[C@@H](O)[C@H](O)[C@H]3N)[C@H]2OCCNCCc2ccccc2)[C@H]1O [Compound 87, N-1-haba-2″-O-phenylethylaminoethyl-3′,4′-dideoxy neomycin]
